The source of these data is patent US8227604B2, “Hybrid 2-aminotetralin and aryl-substituted piperazine compounds and their use in altering CNS activity” (Wayne State University, priority 2001, dated 2012).

Each structure is given as a SMILES string. Where a name gives a salt, the structure may show the parent alone.

For one data set, the target named is T1, 5HT2A receptor (Homo sapiens, UniProt P28223).
T1 construct: expressed in transfected cells
The experiment in a line: Binding affinity at cloned human 5HT2A receptor, [3H]Ketanserin.

The target of another data set is T2, D1 receptor (Homo sapiens, UniProt P21728).
T2 construct: expressed in transfected cells; host or cells: LHD1 cells
T2 sequence (P21728 whole entry): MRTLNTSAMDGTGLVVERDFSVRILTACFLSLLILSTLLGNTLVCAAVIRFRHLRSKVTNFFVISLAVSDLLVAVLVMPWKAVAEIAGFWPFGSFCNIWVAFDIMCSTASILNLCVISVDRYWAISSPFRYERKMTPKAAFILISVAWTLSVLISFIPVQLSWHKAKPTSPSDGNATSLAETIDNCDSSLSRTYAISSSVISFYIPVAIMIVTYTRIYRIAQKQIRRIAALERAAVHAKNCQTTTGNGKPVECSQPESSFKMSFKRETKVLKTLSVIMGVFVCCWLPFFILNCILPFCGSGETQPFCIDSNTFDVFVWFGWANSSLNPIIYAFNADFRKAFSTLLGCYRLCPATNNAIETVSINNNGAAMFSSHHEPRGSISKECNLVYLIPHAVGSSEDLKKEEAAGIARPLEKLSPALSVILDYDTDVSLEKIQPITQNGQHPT
As to the kind of experiment: Binding affinity at cloned human D1 receptor, [3H]SCH23390 (LHD1 cells). The procedure:
LHD1 cells (human receptor) are grown and prepared as described for the HA7 cells as described hereafter. The final pellet is resuspended at 5 mg protein/80 ml in 50 mM Tris-HCl containing 120 mM of NaCl, 5 mM of KCl, 2 mM of CaCl2, and 1 mM of MgCl2, pH 7.4. To wells containing 100 μl of test drug or buffer and […] of [^3H]SCH 23390 (0.18 nM final conc.), is added 0.8 ml of cell homogenate (0.05 mg protein/well), and the plates are incubated at […] for 60 min. Nonspecific binding is determined with 1 μM of SCH 23390.

A further data set addresses T3, 5HT1A receptor (Homo sapiens, UniProt P08908).
T3 construct: expressed in transfected cells; host or cells: HA7 cells
T3 sequence (P08908 1-422): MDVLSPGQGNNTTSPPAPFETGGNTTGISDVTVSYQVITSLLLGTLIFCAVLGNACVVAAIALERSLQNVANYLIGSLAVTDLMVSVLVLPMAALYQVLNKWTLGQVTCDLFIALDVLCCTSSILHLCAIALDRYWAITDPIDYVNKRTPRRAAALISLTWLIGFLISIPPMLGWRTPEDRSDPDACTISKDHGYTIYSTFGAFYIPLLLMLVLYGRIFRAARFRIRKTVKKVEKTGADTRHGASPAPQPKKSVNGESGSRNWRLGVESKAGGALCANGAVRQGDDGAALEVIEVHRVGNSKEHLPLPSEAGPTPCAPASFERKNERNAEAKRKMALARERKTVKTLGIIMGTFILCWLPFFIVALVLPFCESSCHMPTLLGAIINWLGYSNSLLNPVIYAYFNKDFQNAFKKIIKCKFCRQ
The experiment in a line: Binding affinity at cloned human 5HT1A receptor, [3H]8-OH-DPAT (HA7 cells). The procedure: HA7 cells (human receptor) are grown to confluence in DMEM containing 10% fetal calf serum, 0.05% penicillin-streptomycin (pen-strep), and […] of G418. The cells are scraped from the 100 by 20 mm plates and centrifuged at 500·G for 5 min. The pellet is homogenized in 50 mM Tris-HCl, pH 7.7, with a polytron, centrifuged at 27,000·G and resuspended at 10 mg protein/ml in the same buffer. The homogenate is then stored at −70° C. in 1-ml aliquots.
The thawed cells are washed once and resuspended at 10 mg protein/80 ml in 25 mM Tris-HCl containing 100 μM of ascorbic acid and 10 mM of nialamide at pH 7.4. The assay is performed in triplicate in a 96-well plate. To 100 μl of [^3H]8-OH-DPAT (0.5 nM final conc), […] of test compound or buffer and 0.8 ml of cell homogenate (0.1 mg protein/well) is added to each well by a Tomtec Quadra 96. Nonspecific binding is defined using 1 μM dihydroergotamine. The plates are incubated at 25° C. for 60 min, then filtered. The incubation is terminated by rapid filtration through glass fiber filter paper on a Tomtec cell harvester. The filters are washed four times with ice-cold 50 mM Tris-HCl, pH 7.7, dried overnight, bagged with 10 ml scintillation cocktail before counting for 2 min. on a Wallac Betaplate 1205 liquid scintillation counter.

The target in a further data set is T4, 5HT2C receptor (Homo sapiens, UniProt P28335).
T4 construct: expressed in transfected cells
T4 sequence (P28335 33-458): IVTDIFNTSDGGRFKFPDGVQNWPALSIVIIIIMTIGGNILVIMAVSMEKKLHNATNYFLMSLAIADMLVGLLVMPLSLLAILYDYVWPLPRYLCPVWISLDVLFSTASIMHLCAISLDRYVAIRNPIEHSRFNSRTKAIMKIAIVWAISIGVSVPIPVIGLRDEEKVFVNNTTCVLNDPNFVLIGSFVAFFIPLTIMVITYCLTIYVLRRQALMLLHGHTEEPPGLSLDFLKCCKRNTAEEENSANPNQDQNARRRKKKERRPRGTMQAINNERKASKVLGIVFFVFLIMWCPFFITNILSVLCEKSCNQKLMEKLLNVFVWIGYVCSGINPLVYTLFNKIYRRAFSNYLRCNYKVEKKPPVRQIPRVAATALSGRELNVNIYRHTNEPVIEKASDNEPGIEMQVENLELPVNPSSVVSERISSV
The experiment in a line: Binding affinity at cloned human 5HT2C receptor, [3H]Mesulergine.

For data set [1], the target named is T5, D4 receptor (Homo sapiens, UniProt P21917).
T5 sequence (P21917 1-419): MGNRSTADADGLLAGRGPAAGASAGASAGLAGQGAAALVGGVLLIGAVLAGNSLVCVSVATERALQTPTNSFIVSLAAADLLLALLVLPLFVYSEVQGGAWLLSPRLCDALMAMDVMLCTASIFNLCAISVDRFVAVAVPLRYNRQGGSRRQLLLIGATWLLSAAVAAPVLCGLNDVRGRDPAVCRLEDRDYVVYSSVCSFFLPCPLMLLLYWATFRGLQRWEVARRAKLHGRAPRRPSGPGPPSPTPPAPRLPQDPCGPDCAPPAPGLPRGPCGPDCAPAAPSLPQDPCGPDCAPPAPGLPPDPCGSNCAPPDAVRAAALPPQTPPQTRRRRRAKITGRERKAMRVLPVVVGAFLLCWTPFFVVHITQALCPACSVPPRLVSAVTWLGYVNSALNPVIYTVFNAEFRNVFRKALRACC
The experiment in a line: Binding affinity at cloned human D4 receptor, [3H]YM-09151-2 (CHO D4.4 cells). On the set-up: expressed in transfected cells; host or cells: CHO D4.4 cells. The procedure:
CHO D4.4 cells (human receptors) are grown to confluence in D4 Puromycin medium containing 2 μg/ml puromycin, 5% fetal calf serum and 5 supplemented calf serum and 0.5% pen-strep. The cells are harvested as described for D2 and D3 cells and used at a concentration of 0.15 mg protein/well in the [^3H]YM-09151-2 binding assay.

For data set [2], the target named is T5, D4 receptor. The experiment in a line: Agonist potency by [3H]thymidine incorporation (mitogenesis), D4. Type of data set: cell-based. On the set-up: expressed in transfected cells. The procedure:
(§1) Potential as domaminergenic agonists was assayed by ^3H-thymidine incorporation by standard techniques.
The mitogenesis study results presented in Table 7 assay the ability of these ligands to act as agonists or antagonists. The EC50 values thus indicate intrinsic activities or functional activities of these compounds. The value of % maximum stimulation indicates whether a compound is a partial agonist or full agonist. Generally, a value greater than 80% is considered as a full agonist and anything less than 80% is considered as a partial agonist. A compound will be considered antagonist if it produces a negative result (no [3H]thymidine incorporation) in the assay. All the compounds reported in Table 7 are either full agonists or partial agonists.
In general terms: Uptake of a labelled nucleoside into DNA is a usual measure of proliferation.

The next data set addresses T6, D2 receptor (Homo sapiens, UniProt P14416).
T6 construct: expressed in transfected cells
The experiment in a line: Agonist potency by [3H]thymidine incorporation (mitogenesis), D2. To be noted: read-out: D2 % Maxm Stim. Type of data set: cell-based. The procedure: as §1
The EC50 values thus indicate intrinsic activities or functional activities of these compounds. The value of % maximum stimulation indicates whether a compound is a partial agonist or full agonist. Generally, a value greater than 80% is considered as a full agonist and anything less than 80% is considered as a partial agonist.

The target in the next data set is T7, D2L receptor (Homo sapiens, UniProt P14416).
T7 construct: expressed in transfected cells; host or cells: HEK cells
T7 sequence (P14416 whole entry): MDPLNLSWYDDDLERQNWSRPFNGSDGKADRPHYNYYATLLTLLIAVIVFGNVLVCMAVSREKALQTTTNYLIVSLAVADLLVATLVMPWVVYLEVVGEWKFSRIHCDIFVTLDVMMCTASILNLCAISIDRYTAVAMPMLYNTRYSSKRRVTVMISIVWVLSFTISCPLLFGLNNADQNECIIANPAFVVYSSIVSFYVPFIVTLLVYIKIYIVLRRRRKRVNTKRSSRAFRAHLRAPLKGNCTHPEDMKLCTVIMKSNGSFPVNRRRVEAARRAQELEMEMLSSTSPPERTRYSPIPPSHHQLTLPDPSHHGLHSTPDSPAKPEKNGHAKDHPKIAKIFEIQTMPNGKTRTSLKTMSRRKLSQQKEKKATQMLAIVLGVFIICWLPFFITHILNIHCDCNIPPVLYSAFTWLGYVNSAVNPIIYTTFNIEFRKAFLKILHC
The experiment in a line: Inhibition constants for binding to cloned D2L receptor expressed in HEK cells, [3H]spiperone. The procedure:
(§2) Inhibition constants for binding to cloned D2L and D3 receptors expressed in HEK cells by displacing [^3H] spiperone were measured for several compounds.

A further data set addresses D3 receptor (Homo sapiens, UniProt P35462). As to the kind of experiment: Inhibition constants for binding to cloned D3 receptor expressed in HEK cells, [3H]spiperone. The procedure:
as §2

T1 sequence (P28223 whole entry): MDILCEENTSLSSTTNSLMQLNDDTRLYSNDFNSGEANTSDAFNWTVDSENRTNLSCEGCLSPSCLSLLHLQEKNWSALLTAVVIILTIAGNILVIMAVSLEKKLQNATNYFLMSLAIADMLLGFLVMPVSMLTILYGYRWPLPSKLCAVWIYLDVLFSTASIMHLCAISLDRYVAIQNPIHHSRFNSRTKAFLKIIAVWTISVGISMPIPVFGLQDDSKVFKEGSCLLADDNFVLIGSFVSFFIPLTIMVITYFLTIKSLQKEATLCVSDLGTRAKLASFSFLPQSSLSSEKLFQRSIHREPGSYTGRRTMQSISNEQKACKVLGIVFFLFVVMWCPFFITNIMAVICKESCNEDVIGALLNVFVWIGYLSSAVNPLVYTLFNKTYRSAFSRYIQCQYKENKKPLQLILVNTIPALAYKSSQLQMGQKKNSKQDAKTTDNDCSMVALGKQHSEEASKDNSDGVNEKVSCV
Sequence of D3 receptor (P35462 whole entry): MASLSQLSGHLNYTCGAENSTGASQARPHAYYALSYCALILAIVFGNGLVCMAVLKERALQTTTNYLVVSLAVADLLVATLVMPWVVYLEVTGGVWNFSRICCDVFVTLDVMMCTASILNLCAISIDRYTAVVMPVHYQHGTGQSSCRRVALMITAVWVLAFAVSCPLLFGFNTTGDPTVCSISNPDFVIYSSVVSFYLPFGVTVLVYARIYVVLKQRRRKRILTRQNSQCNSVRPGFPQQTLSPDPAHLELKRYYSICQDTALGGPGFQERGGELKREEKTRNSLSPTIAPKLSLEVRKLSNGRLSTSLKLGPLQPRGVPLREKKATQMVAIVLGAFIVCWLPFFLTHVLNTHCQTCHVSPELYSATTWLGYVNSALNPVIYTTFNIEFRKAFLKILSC
T6 sequence (P14416 whole entry): as the sequence (P14416 whole entry) above

A word on the melting point: it is the temperature of the solid-liquid transition. `C#CCN(CCCCN1CCN(c2ccccc2)CC1)C1CCc2ccc(O)cc2C1` (stereo not drawn) (as salt: HBr) [Compound 12b, 7-Hydroxy-2-[N-propargyl-(N-(4-phenylpiperazin-1-yl)-butyl)amino]tetralin]: the melting point was in the range of 182 to 186 °C.
`CCCN(CCCCN1CCN(c2ccccc2)CC1)C1CCc2ccc(O)cc2C1` (stereo not drawn) (as salt: HBr) [Compound 15b, 7-Hydroxyl-2-[N-propyl-(N-(4-phenylpiperazin-1-yl)-butyl)amino]tetralin] returned a melting point of 152 to 156 °C.
The same measure, in the same setting: as for `CCCN(CCCCN1CCN(c2cccc(Cl)c2Cl)CC1)C1CCc2ccc(O)cc2C1` (stereo not drawn) (as salt: HCl) [Compound 19a, 7-Hydroxy-2-[N-propyl-(N-(4-(2,3-dichlorophenyl)-piperazin-1-yl)-butyl)amino]tetralin], the figure is 155 to 159 °C.
`C#CCN(CCCCN1CCN(c2cccc(Cl)c2Cl)CC1)C1CCc2ccc(O)cc2C1` (stereo not drawn) (as salt: HCl) [Compound 19b, 7-Hydroxy-2-[N-propargyl-(N-(4-(2,3-dichlorophenyl)-piperazin-1-yl)-butyl)amino]tetralin] gave a melting point of 180 to 183 °C.
Still for that read-out and setting: under `CCCN(CCN1CCN(c2ccccc2)CC1)C1CCc2nc(N)ncc2C1` (stereo not drawn) (as salt: HCl) [Compound 23, 2-Amino-6-[N-propyl-(N-(4-phenylpiperazin-1-yl)-ethyl)amino]-5,6,7,8-tetrahydrobenzopyrimidine] stands 97 to 102 °C; under `CCCN(CCc1ccc(N)cc1)CCN1CCN(c2ccccc2)CC1` (as salt: hydrochloride) [Compound 29a, 4-(2-{[2-(4-Phenyl-piperazin-1-yl)-ethyl]-propyl-amino}-ethyl)-phenylamine], 262 to 264 °C; under `CCCN(CCc1cccc(N)c1)CCN1CCN(c2ccccc2)CC1` (as salt: hydrochloride) [Compound 29b, 3-(2-{[2-(4-Phenyl-piperazin-1-yl)-ethyl]-propyl-amino}-ethyl)-phenylamine], 278 to 284 °C.
In turn, `CCCN(CCc1ccc(NS(=O)(=O)c2ccc(Cl)cc2)cc1)CCN1CCN(c2ccccc2)CC1` (as salt: hydrochloride) [Compound 30a, 4-Chloro-N-[4-(2-{[2-(4-phenyl-piperazin-1-yl)-ethyl]-propyl-amino}-ethyl)-phenyl]-benzenesulfonamide] showed a melting point of 224 to 226 °C.
On the same count and under the same terms, as for `CCCN(CCc1cccc(NS(=O)(=O)c2ccc(Cl)cc2)c1)CCN1CCN(c2ccccc2)CC1` (as salt: hydrochloride) [Compound 30b, 4-Chloro-N-[3-(2-{[2-(4-phenyl-piperazin-1-yl)-ethyl]-propyl-amino}-ethyl)-phenyl]-benzenesulfonamide], the figure is 220 to 224 °C.
One may read the Ki as a dissociation constant, usually derived from enzyme kinetics or from competition with a known ligand. Take `CCCN(CCC)C1CCc2ccc(O)cc2C1` (stereo not drawn) [Compound 7-OH-DPAT, reference compound]: the inhibition constant Ki was > 10000 nM at 5HT2A receptor, 2550 ± 1080 nM at D1 receptor, 193 ± 3.4 nM at 5HT1A receptor and > 10000 nM at 5HT2C receptor.
Usually EC50 stands for the midpoint of the concentration-response curve. Lower therefore signals greater potency. `C#CCN(CCCCN1CCN(c2ccccc2)CC1)C1CCc2ccc(O)cc2C1` (stereo not drawn) [Compound 12b, 7-Hydroxy-2-[N-propargyl-(N-(4-phenylpiperazin-1-yl)-butyl)amino]tetralin]: the Ki at 5HT2A receptor turned out to be 260 ± 41.9 nM; at D4 receptor [1] (cloned human D4) it was 28.9 ± 4.41 nM; on D1 receptor, 677 ± 34 nM; on 5HT1A receptor, 15.2 ± 3.34 nM; on 5HT2C receptor it was 3220 ± 52.9 nM. For the same compound, the “affinity at the D4 receptor” value on D4 receptor [1] is reported as “good affinity”. The same compound registered a concentration for a half-maximal effect (EC50) at D4 receptor [2] ([3H]thymidine incorporation) of 23.9 ± 3.57 nM. Moreover, the “D4 % Maxm Stim” value on D4 receptor [2] ([3H]thymidine incorporation, >80% full agonist) came out at 85.15 ± 17.64%. Also, the “agonist character at the D4 receptor” value on D4 receptor [2] (functional assay) is recorded as “full agonists”. Besides, at D2 receptor, the Emax was 85 ± 6.26%.
As for `CCCN(CCN1CCN(c2ccccc2)CC1)C1CCc2nc(N)ncc2C1` (stereo not drawn) [Compound 23, 2-Amino-6-[N-propyl-(N-(4-phenylpiperazin-1-yl)-ethyl)amino]-5,6,7,8-tetrahydrobenzopyrimidine], the affinity at D2L receptor, expressed as Ki, was 1120 ± 144 nM.
For the compound `CCCN(CCN1CCN(c2ccccc2)CC1)C1CCc2sc(N)nc2C1` (stereo not drawn) [Compound 25, 2-Amino-5-[N-propyl-(N-(4-phenylpiperazin-1-yl)-ethyl)amino]-4,5,6,7-tetrahydrobenzothiazole], the Ki on D2L receptor is 2080 ± 162 nM; on D3 receptor (D3 expressed in HEK cells), 4.14 ± 0.55 nM. In addition, at D3 receptor (ratio of Ki D2L to Ki D3, HEK cells, [3H]spiperone), the D2L/D3 stood at 502.
